# Measured values reported in patent publication US11279733B2, “Peptide antibiotics” (priority 2017, dated 2022).
# Positions of bridges follow the written chain, without caps; N, C: chain ends. Non-standard residues stand in square brackets, D forms with d. Residues, ends and D or L forms follow the SMILES beside them. *: point of attachment. Decanoyl(3R-OH) = CCCCCCC[C@@H](O)CC(=O)*; 1Nal = N[C@@H](Cc1cccc2ccccc12)C(=O)O; Igl = N[C@H](C(=O)O)C1Cc2ccccc2C1; hPhe = N[C@@H](CCc1ccccc1)C(=O)O; dDab = NCC[C@@H](N)C(=O)O; Dab = NCC[C@H](N)C(=O)O
# Tests used:
# A. baumannii ATCC 19606 = settings: ATCC 19606
# Outline: (§1)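 Mid-log cultures grown in Mueller Hinton broth at 37° C were tested by 2-fold broth microdilution at 5×10^5 CFU/mL final. Compounds were dissolved in water and tested over a final range of 32 to 0.015 μg/mL.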
# A. baumannii GN_093 PmxR = settings: GN 093 PmxR
# Outline: as §1
# E. coli ATCC 25922 = settings: ATCC 25922
# Outline: as §1
# K. pneumoniae ATCC 13883 = settings: ATCC 13883
# Outline: as §1
# [1] = test system: K. pneumoniae ATCC 700603, MDR; settings: ATCC 700603
# Outline: as §1
# [2] = test system: K. pneumoniae ATCC BAA-2146, NDM-1 pos; settings: ATCC BAA-2146
# Outline: as §1
# [3] = test system: K. pneumoniae GN_102 PmxR; settings: GN 102 PmxR
# Outline: as §1
# [4] = test system: K. pneumoniae GN_106, PmxR; settings: GN 106, PmxR
# Outline: as §1
# P. aeruginosa ATCC 27853 = settings: ATCC 27853
# Outline: as §1
# [5] = test system: P. aeruginosa GN_043, PmxR; settings: polymyxin-resistant
# Outline: as §1
# [6] = test system: P. aeruginosa GN_105, PmxR; settings: GN 105, PmxR
# Outline: as §1
# [7] = test system: S. aureus ATCC 25923, MSSA; settings: ATCC 25923
# Outline: as §1
# in vitro = settings: human
# Outline: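 Compound exposure lasted 24 h, following 24 h attachment of 4000 cells/well at 37° C under 5% CO2.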
# Neisseria gonorrhoeae = assay: MIC determination, Neisseria gonorrhoeae; assay type: cell-based; settings: strain FA19 ATCC BAA-1838
# Protocol: Bacteria were either obtained from American Type Culture Collection (ATCC; Manassas, Va., USA) or independent academic clinical isolate collections, as listed in Table 18 below. Bacteria were cultured in Nutrient broth (NB; Bacto Laboratories, catalogue No. 234000) or Mueller Hinton broth (MHB; Bacto Laboratories, catalogue No. 211443) at 37° C. overnight with shaking (˜180 RPM). A sample of each culture was then diluted 50-fold in fresh MHB and incubated at 37° C. for 2-3 h with shaking (˜180 RPM). Compound stock solutions were prepared as 0.64 mg/mL or 2.56 mg/mL in water. The compounds, at twice the final desired concentration, were serially diluted 2-fold across the wells of 96-well plates (Polystyrene, Corning, catalogue No. 3370). Mid-log phase bacterial cultures (after 2-3 h incubation) were diluted to a final concentration of 1×10^6 colony forming units (CFU)/mL, and 50 μL was added to each well giving a final cell density of 5×10^5 and a compound concentration range of 32 μg/mL to 0.015 μg/mL (128-0.06 μg/mL against P. aeruginosa PA9704).
SMILES,MIC A. baumannii ATCC 19606 (A. baumannii ATCC 19606),MIC A. baumannii GN_093 PmxR (A. baumannii GN_093 PmxR),MIC E. coli ATCC 25922 (E. coli ATCC 25922),MIC K. pneumoniae ATCC 13883 (K. pneumoniae ATCC 13883),"MIC K. pneumoniae ATCC 700603, MDR [1]","MIC K. pneumoniae ATCC BAA-2146, NDM-1 pos [2]",MIC K. pneumoniae GN_102 PmxR [3],"MIC K. pneumoniae GN_106, PmxR [4]",MIC P. aeruginosa ATCC 27853 (P. aeruginosa ATCC 27853),"MIC P. aeruginosa GN_043, PmxR [5]","MIC P. aeruginosa GN_105, PmxR [6]","MIC S. aureus ATCC 25923, MSSA [7]",CC50 at 24 h (in vitro),MIC N. gonorrhoeae FA19 ATCC BAA-1838 (Neisseria gonorrhoeae)
"CCCCCCC[C@@H](O)CC(=O)N[C@H](CCN)C(=O)N[C@H]1CCNC(=O)[C@H](Cc2cccc3ccccc23)NC(=O)[C@H](CCN)NC(=O)[C@H](CCN)NC(=O)[C@H](CC(C)C)NC(=O)[C@@H](Cc2ccccc2)NC(=O)[C@H](CCN)NC1=O [compound 8909, 3(R)OH-nC9CO-D-Dab-cyc[L-Dab-L-Dab-D-Phe-L-Leu-L-Dab-L-Dab-L-Ala(1Naphthyl)]] ({Decanoyl(3R-OH)}-[dDab][Dab][Dab][dF]L[Dab][Dab][1Nal]; lactam 2-C)",4 µg/mL,4 µg/mL,2 µg/mL,2 µg/mL,2 µg/mL,4 µg/mL,4 µg/mL,4 µg/mL,2 µg/mL,4 µg/mL,2 µg/mL,2 µg/mL,26 µM,0.78 µg/mL
"CCCCCCC[C@@H](O)CC(=O)N[C@H](CCN)C(=O)N[C@H]1CCNC(=O)[C@H](C2Cc3ccccc3C2)NC(=O)[C@H](CCN)NC(=O)[C@H](CCN)NC(=O)[C@H](CC(C)C)NC(=O)[C@@H](Cc2ccccc2)NC(=O)[C@H](CCN)NC1=O [compound 8912, 3(R)OH-nC9CO-D-Dab-cyc[L-Dab-L-Dab-D-Phe-L-Leu-L-Dab-L-Dab-L-indanylgly]] ({Decanoyl(3R-OH)}-[dDab][Dab][Dab][dF]L[Dab][Dab][Igl]; lactam 2-C)",4 µg/mL,4 µg/mL,2 µg/mL,2 µg/mL,4 µg/mL,4 µg/mL,2 µg/mL,2 µg/mL,2 µg/mL,2 µg/mL,2 µg/mL,2 µg/mL,28 µM,0.78 µg/mL
"CCCCCCC[C@@H](O)CC(=O)N[C@H](CCN)C(=O)N[C@H]1CCNC(=O)[C@H](CCc2ccccc2)NC(=O)[C@H](CCN)NC(=O)[C@H](CCN)NC(=O)[C@H](CC(C)C)NC(=O)[C@@H](Cc2ccccc2)NC(=O)[C@H](CCN)NC1=O [compound 8913, 3(R)OH-nC9CO-D-Dab-cyc[L-Dab-L-Dab-D-Phe-L-Leu-L-Dab-L-Dab-L-hPhe]] ({Decanoyl(3R-OH)}-[dDab][Dab][Dab][dF]L[Dab][Dab][hPhe]; lactam 2-C)",8 µg/mL,4 µg/mL,2 µg/mL,4 µg/mL,4 µg/mL,4 µg/mL,2 µg/mL,2 µg/mL,2 µg/mL,4 µg/mL,2 µg/mL,4 µg/mL,32 µM,1.56 µg/mL
